Experimental data published in US20250346584A1, “NOVEL KAPPA OPIOID LIGANDS” (The Scripps Research Institute, priority 2012, published 2025).

Molecular target: kappa opioid receptor (OPRK1) (Homo sapiens (Human), UniProt P41145)
Experiment: OPRK1 antagonist assay (b-arrestin-2-TEV / b-lactamase reporter cell line, EC80 U-50488 challenge)
Type: cell-based
Conditions: read-out: IC50 nM (% inhib if other than 50%); antagonist mode vs EC80 U-50488; NA = not active at concentrations up to 10 μM

kappa opioid receptor (OPRK1), sequence (P41145 whole entry): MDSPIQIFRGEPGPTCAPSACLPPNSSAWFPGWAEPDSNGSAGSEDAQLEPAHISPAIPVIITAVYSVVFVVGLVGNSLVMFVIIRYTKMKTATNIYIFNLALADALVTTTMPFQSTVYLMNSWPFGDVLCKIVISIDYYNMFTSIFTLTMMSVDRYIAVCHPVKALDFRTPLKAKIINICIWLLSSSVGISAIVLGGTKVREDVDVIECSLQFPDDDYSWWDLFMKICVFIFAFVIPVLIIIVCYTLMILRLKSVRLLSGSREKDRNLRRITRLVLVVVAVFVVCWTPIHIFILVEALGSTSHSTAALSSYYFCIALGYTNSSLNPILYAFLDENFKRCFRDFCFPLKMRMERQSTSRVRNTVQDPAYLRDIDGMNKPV

| SMILES | IC50 |
| --- | --- |
| OCC1CN(c2nc3ccccc3cc2-c2ncccn2)CCC1NC1CCCCC1 (stereo not drawn) [compound 264] | 56 nM |
| COC(=O)c1cc(Br)cnc1N1CC(NC2CCCCC2)C1 [compound 67] | 1400 nM |
| COC(=O)c1cc(Br)cnc1N1CCC(N)C(O)C1 (stereo not drawn) [compound 83] | 5900 nM |
| COC1CN(c2ncc(Br)cc2C(C)=O)CCC1NC1CCCCC1 (stereo not drawn) [C61] | 10000 nM |
| Cc1cnc(N2CCC(NC3CCOCC3)CC2)c(-c2cnc(C)cn2)c1 [compound 473] | 3210 nM |
| CCOC(=O)c1nc2cc(C)ccc2nc1N1CCC(NC2CCCCC2)C(OC)C1 (stereo not drawn) [compound 353] | 23 nM |
| Cc1noc(-c2cc3ccccc3nc2N2CCC(NC3CCCCC3)C(F)C2)n1 (stereo not drawn) [compound 204] | 52 nM |
| CCO/N=C/c1cc(Br)cnc1N1CCC(NC2CCCCC2)CC1 [compound 101] | 4000 nM |
| COC1CN(c2nc3ccccc3cc2-c2cnc(C)cn2)CCC1NC1CCCCC1 (stereo not drawn) [compound 465] | 18 nM |
| Cc1cc(-c2nc(C)no2)c(N2CCC(NC3CCOCC3)CC2)nn1 [compound 272] | 8700 nM |
| COC(=O)c1cc(Cl)cnc1N1CCC(NC2CCCCC2)CC1 [compound 40] | 159 nM |
| CCOC(=O)c1cc(C)c(C)nc1N1CCC(NC2CCCCC2)C(CO)C1 (stereo not drawn) [compound 159] | 35 nM |
| Cc1cc(-c2nc(C)no2)c(N2CCC(NC3CCCCC3)C(CO)C2)nn1 (stereo not drawn) [compound 180] | 7 nM |
| Cc1ccc2nc(N3CCC(Nc4ncccn4)CC3)c(-c3nc(C)no3)cc2c1 [C83] | 47000 nM |
| CCc1noc(-c2cc3cc(C)ccc3nc2N2CCC(NC3CCOCC3)C(OC)C2)n1 (stereo not drawn) [compound 327] | 5.6 nM |
| COC1CN(c2ncc(C(F)(F)F)cc2-c2nc(C)no2)CCC1NC1CCCCC1 (stereo not drawn) [compound 174] | 180 nM |
| Cc1ccc2nc(N3CCC(NC4CCCCC4)CC3)c(-c3nc(C)no3)cc2c1 [compound 219] | 3.5 nM |
| COC1CN(c2nc3ccc(C)cc3cc2-c2nc(C)no2)CCC1NC1CCCCCC1 (stereo not drawn) [compound 312] | 0.7 nM |
| COC(=O)c1cc(Br)cnc1N1CCC(NC2CCCCC2)C(C(=O)OC)C1 (stereo not drawn) [compound 116] | 793 nM |
| Cc1noc(-c2cc3ccc(F)c(C)c3nc2N2CCC(NC3CCOCC3)CC2)n1 [compound 493] | 132 nM |

| SMILES | IC50 |
| --- | --- |
| Cc1noc(-c2cc(C(F)(F)F)cnc2N2CCC(NC3CCCCC3)C(CO)C2)n1 (stereo not drawn) [compound 187] | 341 nM |
| COC(=O)c1cc(Br)cnc1N1CCC(N[C@@H]2CCCCC[C@H]2O)CC1 [compound 27] | 473 nM |
| Cc1noc(-c2cc3ccccc3nc2N2CCC(NC3CCCCC3O)CC2)n1 (stereo not drawn) [compound 230] | 9 nM |
| COC(=O)c1cc(Br)cnc1N1CCC(NC2CCCCC2C)C(O)C1 (stereo not drawn) [compound 58] | 419 nM |
| CCOC(=O)c1noc(-c2cc3cc(C)ccc3nc2N2CCC(NC3CCCCC3)C(CO)C2)n1 (stereo not drawn) [C91] | 17700 nM |
| Cc1nc(-c2cc3cc(F)ccc3nc2N2CCC(N[C@H]3CCC[C@@H]3O)CC2)no1 [compound 474] | 1900 nM |
| COC1CN(c2nc3c(C)cccc3cc2-c2nc(C)no2)CCC1NC1CCCCC1 (stereo not drawn) [compound 276] | 18 nM |
| Cc1noc(-c2cc3ccccc3nc2N2CCC(CO)(NC3CCCCC3)CC2)n1 [compound 222] | 163 nM |
| Cc1cnc(N2CCC(NC3CCCCC3)C(CO)C2)c(C=O)c1 (stereo not drawn) [compound 216] | 4500 nM |
| COC(=O)c1cc(Br)cnc1N1CCC(NC2CCCCCC2)C(O)C1 (stereo not drawn) [compound 60] | 68 nM |
| Cc1ccc2nc(N3CCC(NCC4CC4)CC3)c(-c3noc(C)n3)cc2c1 [compound 434] | 43 nM |
| Cc1noc(-c2cc3cccc(C)c3nc2N2CCC(NC3CCOCC3)CC2)n1 [compound 275] | 98 nM |
| Cc1cc(-c2nc(C)no2)c(N2CC[C@@H](NC3CCCCC3)[C@H](O)C2)nn1 [compound 175] | 46 nM |
| Cc1noc(-c2cc3cc(C)c(C)cc3nc2N2CCC(NC3CCCCC3)C(CO)C2)n1 (stereo not drawn) [compound 307] | 41 nM |
| COC1CN(c2nc3cc(C)c(C)cc3cc2-c2nc(C)no2)CCC1NC1CCCCC1 (stereo not drawn) [compound 306] | 107 nM |
| Cc1nc(-c2cc3ccc(F)cc3nc2N2CCC(N[C@H]3CCCC[C@@H]3O)CC2)no1 [compound 485] | 673 nM |
| Cc1noc(-c2cc3ccc(Cl)cc3nc2N2CCC(NCC(C)C)CC2)n1 [compound 541] | 45 nM |
| COC(=O)c1cc(Br)cnc1N1CCC(NC2CCCCC2)C(F)C1 (stereo not drawn) [compound 52] | 3400 nM |
| COC(=O)c1cc(Br)cnc1N1CCC(NC2CCCCC2)CC1C (stereo not drawn) [compound 64] | 901 nM |

The remaining compounds from weak to strong by IC50, led by results:

| IC50 | SMILES |
| --- | --- |
| 9100 nM | O[C@@H]1CN(c2ncc(Br)cc2-c2nc(C3CC3)no2)CC[C@H]1NC1CCCCC1 [compound 150] |
| 5800 nM | COC(=O)c1cccnc1N1CC[C@@H](NC2CCCCC2)[C@H](O)C1 [compound 148] |
| 2500 nM | Cc1cnc(N2CC[C@@H](NC3CCCCC3)[C@H](O)C2)c(-c2ncco2)c1 [compound 169] |
| 1770 nM | COC1CN(c2nc3ccccc3cc2-c2ncccn2)CCC1NC1CCCCC1 (stereo not drawn) [compound 263] |
| 1200 nM | CCOC(=O)c1cccnc1N1CCC(NC2CCCCC2)C1 (stereo not drawn) [compound 25] |
| 799 nM | O=Cc1cc(Br)cnc1N1CC[C@@H](NC2CCCCC2)[C@H](O)C1 [compound 129] |
| 440 nM | Cc1nc(-c2cc3cc(F)ccc3nc2N2CCC(NC3CCOCC3)CC2)no1 [compound 469] |
| 278 nM | CO[C@H]1CN(c2nc3ccc(C)cc3cc2-c2nc(C)no2)CC[C@H]1NC1CCC(F)(F)CC1 [compound 521] |
| 267 nM | Cc1noc(-c2cc3ccccc3nc2N2CCC(NC3CCCCC3)C2)n1 (stereo not drawn) [compound 212] |
| 209 nM | COC(=O)c1cc2ccccc2nc1N1CC[C@@H](NC2CCCCC2)[C@H](O)C1 [compound 160] |
| 205 nM | COC(=O)c1cc(Br)cnc1N1CCC(NC2CCCCC2)C(OC)C1 (stereo not drawn) [compound 73] |
| 175 nM | Cc1nc(-c2cc3cc(F)ccc3nc2N2CCC(NC3CCCC3)CC2)no1 [compound 468] |
| 74 nM | Cc1noc(-c2cc3c(nc2N2CCC(NC4CCCCC4)C(CO)C2)CCC3)n1 (stereo not drawn) [compound 211] |
| 67 nM | CO[C@@H]1CN(c2nc3ccc(C)cc3cc2-c2nc(C)no2)CC[C@@H]1NC1CCOCC1 [compound 522] |
| 64 nM | Cc1noc(-c2cc3ccc(F)c(C)c3nc2N2CCC(NCC(C)C)CC2)n1 [compound 494] |
| 49 nM | Cc1noc(-c2cc3c(F)cccc3nc2N2CCC(NCC(C)C)CC2)n1 [compound 526] |
| 48 nM | Cc1ccc2nc(N3CCC(NC[C@@H](C)O)CC3)c(-c3nc(C)no3)cc2c1 [compound 421] |
| 48 nM | Cc1nc(-c2cc3cc(C)c(F)cc3nc2N2CCC(N[C@H]3CCCC[C@@H]3O)CC2)no1 [compound 506] |
| 45 nM | Cc1nc(-c2cc3ccc(F)c(C)c3nc2N2CCC(NC3CCCC3)CC2)no1 [compound 504] |
| 25 nM | COC(=O)c1cc(Br)cnc1N1CCC(NC2CCCC2)C(CO)C1 (stereo not drawn) [compound 79] |
| 18 nM | Cc1ccc2nc(N3CCC(NC4CCCCC4)C(CO)C3)c(C(=O)OC(C)C)cc2c1 (stereo not drawn) [compound 291] |
| 17 nM | Cc1noc(-c2cc3ccccc3nc2N2CCC(NC3CCCC3)C(CO)C2)n1 (stereo not drawn) [compound 205] |
| 0.99 nM | CO[C@H]1CN(c2nc3ccc(C)cc3cc2-c2noc(C)n2)CC[C@H]1NC1CCCCC1 [compound 338] |
| 0.7 nM | CO[C@H]1CN(c2nc3ccc(C)cc3cc2-c2nc(C)no2)CC[C@H]1NC1CCCCC1 [compound 294] |
